9 molecules from patent US20240117402A1, “METHODS FOR (POLY) PEPTIDE TANDEM LIGATION AND CYCLIZATION” (Nanyang Technological University, priority 2021, published 2024) can be followed below.

Where no end group is shown, it is not given here.

For series [1], the system named is butelase-1. Kind of series: Butelase-1-mediated intermolecular peptide ligation kinetics (HPLC). The format is biochemical. To be noted: for Km / kcat: Butelase-1, limiting substrate 50-800 μM, partner peptide constant. The protocol:
(§1) FIG. 3. Kinetic studies on VyPAL2- and butelase 1-catalyzed intermolecular ligations. A) Peptide 1 (SEQ ID NO:7) containing the C-terminal NHV sequence was used at varying concentrations (50 — 800 μM) to react with peptide 2 (SEQ ID NO:8) at constant concentration (1 mM); B) Peptide 4 (SEQ ID NO:9) at a constant concentration (1.5 mM) was reacted with the GF-peptide 5 (SEQ ID NO:10) at varying concentrations (50-800 μM). C) Peptide 2 at a constant concentration (1.5 mM) was reacted with the -NGF peptide 7 (SEQ ID NO:11) at varying concentrations (50-800 μM). The ligation product 3 or 6 was confirmed by ESI-MS. The reaction rates were calculated from the consumption of the limiting substrate 1, 5 or 7. Initial rate (V0) at different concentrations of the limiting substrate were used for Michaelis-Menten curve plotting. For each kinetic calculation, a lineweaver-Burk plot was also used to confirm the analysis.
(§2) PAL enzymes have been used extensively for protein single-site labeling and macrocyclization. However, using two PALs of different substrate specificity for bio-orthogonal and dual ligation remains unexplored. […] To determine the differences quantitatively, firstly the kinetics of VyPAL2 and butelase-1 toward peptide 1 or 7 which has a C-terminal NHV or NGF tripeptide motif respectively were studied (Table 1). The nucleophile substrate, used at a constant concentration, was peptide 2 which contains an N-terminal GI dipeptide motif. Reverse-phase analytical HPLC was used to monitor and quantify the ligation reaction. […] Similarly, kinetics of the two ligases towards a GF-starting nucleophile substrate, peptide 5, were also examined.
(§3) In this case, the acyl substrate, now kept at a constant concentration for the kinetic study, was peptide 4 which contains NGL at the C-terminus, a favorable motif for both VyPAL2 and butelase-1. It was shown that VyPAL2 has 5-fold catalytic efficiency than butelase-1 towards the GF-peptide substrate 5 (Table 1 and FIG. 3). In summary, the kinetic studies confirm the differential activities of butelase-1 and VyPAL2 toward certain substrate sequences, which provide strong support for a two-PAL, bio-orthogonal tandem ligation scheme for protein dual labeling.

In series [2] the test system is VyPAL2. Kind of series: VyPAL2-mediated intermolecular peptide ligation kinetics (HPLC). Format: biochemical, Viola yedoensis. The following applies: for Km / kcat: VyPAL2, limiting substrate 50-800 μM; for Km: partner peptide constant; for kcat: partner peptide constant (1 with 2 at 1 mM; 5 with 4 at 1.5 mM; 7 with 2 at 1.5 mM); for catalytic activity/efficiency of VyPAL2 relative to butelase-1 towards the substrate: intermolecular ligation. The protocol:
as §1, §2, §3

The test system of series [3] is butelase-1. Nature of the series: Butelase-1-catalyzed peptide cyclization (substrate screen, pH scan, kinetics). Format: biochemical. To be noted: for substrate preference among P1-Asp peptides: 25 nM butelase-1, 5 μM peptide, pH 4.5, 25° C., 60 min. The method, then: (§4) FIG. 9. Screening of P1′-Asp peptides for cyclization by A) VyPAL2, B) butelase-1 and C) OaAEP1b. Quantitative summary of reaction yields of the reaction mixtures. For each reaction, 25 nM of the enzyme and 5 μM of the peptide substrate (21a-21i) were mixed and reacted at pH 4.5, 25° C. for 60 min. The positive control peptide 21j was performed at the same conditions except at pH 7.4. Average yields and SDs were calculated from experiments performed in triplicate. The amino acid sequence of the peptides used are set forth in SEQ ID Nos. 15-24.
(§5) FIG. 10. Ligation activity of three different ligases under different pH and substrate. Cyclization activity of A) VyPAL2, B) Butelase-1 or C) OaAEP1b towards substrate 21e-DSL and 21j-NGL; Fold difference was calculated using the cyclization rate of 21j-NGL divided by that of 21e-DSL. All the results were the average reaction rate at different pH in triplicate experiments based on MALDI-TOF analysis. Light grey text in the “Fold difference” axis marks to the maximum fold difference.
(§6) FIG. 11. Enzymatic activity of three different ligases on the cyclization reaction of P1-Asp peptide 21e-DSL or 21a-DGL and P1-Asn-peptide 21j-NGL. A) Scheme of PAL-mediated P1-Asp peptide cyclization; B) Enzymatic kinetics of VyPAL2 in cyclizing 21e-DSL at pH 4.5; C) Enzymatic kinetics of VyPAL2 in cyclizing 21e-DSL at pH 7.0; D) Enzymatic kinetics of OaAEP1b in cyclizing 21a-DGL at pH 5.5; E) Enzymatic kinetics of Butelase-1 in cyclizing 21e-DSL at pH 4.5. F) Scheme of PAL-mediated cyclization of peptide 21j-NGL; G). Enzymatic kinetics of butelase-1 in cyclizing […] at pH 4.5; H)
(§7) Enzymatic kinetics of VyPAL2 in cyclizing 21j-NSL at pH 4.5; I) Enzymatic kinetics of butelase-1 in cyclizing 21j-NSL at pH 7.4; J) Enzymatic kinetics of OaAEP1b in cyclizing 21j-NSL at pH 7.0. Sequences of peptides used are set forth in SEQ ID Nos. 15, 19, 24.
(§8) PALs recognize a tripeptide motif Asx-P1′-P2′ in the acyl donor substrate for their catalyzed ligation reactions. Because the formation of the acyl-enzyme thioester intermediate is the rate-limiting step, the leaving group P1′-P2′ also plays an important role in determining the catalytic kinetics of a particular 40 PAL-mediated reaction. Previous studies have determined Leu as a preferred P2′ residue. To identify the most favorable P1′ residues for PAL-catalyzed Asp-ligation, a panel of peptides (peptide 21a-21j) with C-terminal DXL and N-terminal GI motifs was synthesized and cyclization reactions performed. Peptide 21j with a C-terminal NGL, a P1-Asn peptide favored by VyPAL2, was used for comparison with the P1-Asp peptides 21a-21i. […] Meanwhile, the P1′ substrate specificities of the two other ligases - Butelase-1 and OaAEP1b - were also evaluated by using the same substrates 21a-21j.
A pH scan experiment with the other two ligases: butelase-1 and OaAEP1 b, for their cyclase activity on 21e and 21j was also conducted. […] In fact, the difference in reaction efficiency between 21j and 21e was about 950 times at pH 7.4 (FIG. 10). […] This makes VyPAL2 a more efficient ligase than butelase-1 for Asp-mediated protein modification.

Series [4] concerns VyPAL2. Nature of the series: VyPAL2-catalyzed peptide cyclization (substrate screen, pH scan, kinetics). The format is biochemical, Viola yedoensis. The method, then:
as §4, §5, §6, §7, §8
scanning experiment using the two peptides 21e and 21j was performed. Cyclization reactions were conducted by mixing 5 μM of peptide 21e or 50 μM of 21j with 25 nM of VyPAL2 over a pH range of 4.0 to 7.4. Results confirmed that the optimum pH for the cyclization of the P1-Asn peptide 21j was 6.5-7.4. But for the P1-Asp peptide 21e (which has the C-terminal DSL tripeptide), the optimum pH was 4.0-4.5.
It is worth noting that, at pH 7.4, VyPAL2 processed peptide 21j for cyclization at a rate that is >1000 folds faster than processing peptide 21e (FIG. 10). This enormous difference of reactivity essentially established the orthogonality for ligation at Asn in the presence of aspartyl bonds.

Series [5] addresses T1, Peptide 1 (SEQ ID NO:7), Ac-KKLAVINHV
T1 chain: KKLAVINHV

Series [6] deals with T2, Peptide 5 (SEQ ID NO:10), GFGGIKA.
T2 chain: GFGGIKA

The target in series [7] is T3, Peptide 21e (SEQ ID NO:19), GISTKSIPPISYRDSL
T3 chain: GISTKSIPPISYRDSL

Series [8] has as its target T4, Peptide 7 (SEQ ID NO:11), Ac-KKLAVINGF
T4 chain: KKLAVINGF

For series [9], the target named is T5, Peptide 21j (SEQ ID NO:24), GISTKSIPPISYRNGL
T5 chain: GISTKSIPPISYRNGL

Where [10] appears, read: Butelase-1, cyclization, pH 4.5.

Sequence of VyPAL2 (as listed by the source): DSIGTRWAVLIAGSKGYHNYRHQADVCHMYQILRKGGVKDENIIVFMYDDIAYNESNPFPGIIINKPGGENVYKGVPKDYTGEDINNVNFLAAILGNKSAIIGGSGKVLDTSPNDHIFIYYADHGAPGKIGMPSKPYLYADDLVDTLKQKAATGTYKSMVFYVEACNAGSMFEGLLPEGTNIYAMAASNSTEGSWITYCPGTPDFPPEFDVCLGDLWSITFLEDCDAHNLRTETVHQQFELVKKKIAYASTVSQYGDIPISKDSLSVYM

Take “Ac-KKLAVINGF (Ac-KKLAVINGF-NH2) [Peptide 7]”: in the series on butelase-1 [1], the Km was found to be 175 ± 1 µM and the kcat is given as 0.46 ± 0.04 S^−1. Also, in the series with VyPAL2 [2], the Michaelis-Menten constant (Km) is 155 ± 15 µM, the kcat is listed as 1.10 ± 0.03 S^−1 and the “catalytic activity/efficiency of VyPAL2 relative to butelase-1 towards the substrate” value was “about 3 times”.

As to “Ac-KKLAVINHV (Ac-KKLAVINHV-NH2) [Peptide 1]”, in the series on butelase-1 [1], the Km was determined as 85 ± 3 µM and the kcat is 1.47 ± 0.04 S^−1. Besides, the “catalytic activity of butelase-1 relative to VyPAL2 towards the substrate” value in the series on butelase-1 [1] (intermolecular ligation) is listed as “about 18 times”. Also, in the series with VyPAL2 [2], the Km was found to be 182 ± 6 µM and the kcat amounted to 0.17 ± 0.01 S^−1.

GFGGIKA (GFGGIKA-NH2) [Peptide 5]: in the series with butelase-1 [1], the Michaelis-Menten constant (Km) was 365 ± 3 µM and the kcat amounted to 1.55 ± 0.01 S^−1. Also, in the series with VyPAL2 [2], the Michaelis-Menten constant (Km) turned out to be 424 ± 26 µM, the kcat was found to be 8.29 ± 0.48 S^−1 and the “catalytic activity/efficiency of VyPAL2 relative to butelase-1 towards the substrate” value was 5 times.

“GISTKSIPPISYRDKL (GISTKSIPPISYRDKL-NH2) [Peptide 21g]”: the “substrate preference among P1-Asp peptides” value with butelase-1 [3] was “slight preference”.

In the case of “GISTKSIPPISYRDLL (GISTKSIPPISYRDLL-NH2) [Peptide 21d]”, the “substrate preference among P1-Asp peptides” value in the series with butelase-1 [3] was “slight preference”.

Consider “GISTKSIPPISYRDQL (GISTKSIPPISYRDQL-NH2) [Peptide 21h]”, for which the “substrate preference among P1-Asp peptides” value with butelase-1 [3] is reported as “slight preference”.

In the case of “GISTKSIPPISYRDRL (GISTKSIPPISYRDRL-NH2) [Peptide 21f]”, the “substrate preference among P1-Asp peptides” value in the series with butelase-1 [3] is on record as “least favored P1-Asp substrate”.

In the case of “GISTKSIPPISYRDSL (GISTKSIPPISYRDSL-NH2) [Peptide 21e]”, in the series with VyPAL2 [4] (25 nM VyPAL2, 5 μM peptide, pH 4.5, 25° C., 60 min), the “cyclization rate among P1-Asp peptides 21a-21i” value is listed as “fastest cyclization rate”. In the series on VyPAL2 [4] (25 nM VyPAL2, pH range 4.0 to 7.4, 5 μM 21e or 50 μM 21j), the “optimum pH for cyclization” value is reported as 4.0-4.5. Further, the Michaelis-Menten constant (Km) in the series with VyPAL2 [4] (VyPAL2, cyclization, pH 4.5) worked out at 25.6 ± 2.6 µM; with VyPAL2 [4] (VyPAL2, cyclization, pH 7.0), 42.3 ± 2.8 µM; in the series with butelase-1 [3] (setting [10]) it was 16.6 ± 2.3 µM. Moreover, the kcat was 0.28 ± 0.023 s⁻¹ in the series with VyPAL2 [4] (VyPAL2, cyclization, pH 4.5); 0.021 ± 0.001 s⁻¹ in the series on VyPAL2 [4] (VyPAL2, cyclization, pH 7.0); 0.11 ± 0.01 s⁻¹ with butelase-1 [3] (setting [10]). Moreover, in the series on VyPAL2 [4] (VyPAL2, cyclization, pH 7.4), the maximum rate (Vmax) was 0.004 µM/min.

B1: butelase-1 (asparaginyl ligase, active form, SEQ ID NO:2) (protein)
chain: VEGTRWAVLVAGSKGYVNYRHQADVCHAYQILKKGGLKDENIIVFMYDDIAYNESNPHPGVIINHPYGSDVYKGVPKDYVGEDINPPNFYAVLLANKSALTGTGSGKVLDSGPNDHVFIYYTDHGGAGVLGMPSKPYIAASDLNDVLKKKHASGTYKSIVFYVESCESGSMFDGLLPEDHNIYVMGASDTGESSWVTYCPLQHPSPPPEYDVCVGDLFSVAWLEDCDVHNLQTETFQQQYEVVKNKTIVALIEDGTHVVQYGDVGLSKQTLFVYMGTDPAN
As to B1, in [5], the Km, intermolecular ligation of peptide 1 (varied) with nucleophile peptide 2 came out at 85 µM; the kcat, intermolecular ligation of peptide 1 (varied) with nucleophile peptide 2 turned out to be 1.47 S^-1; the kcat/Km, intermolecular ligation of peptide 1 (varied) with nucleophile peptide 2 was 17300 M^-1S^-1. In series [6], the Km, intermolecular ligation of GF-peptide 5 (varied) with acyl substrate peptide 4 amounted to 365 µM; the kcat, intermolecular ligation of GF-peptide 5 (varied) with acyl substrate peptide 4 came out at 1.55 S^-1; the kcat/Km, intermolecular ligation of GF-peptide 5 (varied) with acyl substrate peptide 4 was 4260 M^-1S^-1. For the same molecule, in series [7], the Km, cyclization at pH 4.5 came to 16.6 µM; the kcat, cyclization at pH 4.5 is 0.11 s⁻¹; the kcat/Km, cyclization at pH 4.5 is 7210 ± 489 M^-1s^-1. Besides, in [8], the Km, intermolecular ligation of peptide 7 (varied) with nucleophile peptide 2 is 175 µM; the kcat, intermolecular ligation of peptide 7 (varied) with nucleophile peptide 2 turned out to be 0.46 S^-1; the kcat/Km, intermolecular ligation of peptide 7 (varied) with nucleophile peptide 2 worked out at 2650 M^-1S^-1. Further, in series [9], the Km, cyclization at pH 4.5 amounted to 12.7 µM; the Km, cyclization at pH 7.4 is 13.5 µM; the kcat, cyclization at pH 4.5 stood at 0.6 s⁻¹; the kcat, cyclization at pH 7.4 is 9.4 s⁻¹. For the same molecule, in [9], the kcat/Km, cyclization at pH 4.5 is 47100 ± 3740 M^-1s^-1 and the kcat/Km, cyclization at pH 7.4 worked out at 714200 ± 5390 M^-1s^-1.
